We go through one compound from patent US20230364084A1, “METHODS FOR PREVENTING OR TREATING CONDITIONS RELATED TO PIKFYVE ACTIVITY” (The Regents of the University of Michigan, priority 2020, published 2023).

Structures are written as SMILES.

Experiment [1] has as its system enzalutamide-resistant LNCaP-AR and CWR-R1 cells. Nature of the experiment: long-term survival assay in enzalutamide-resistant cell lines. The experiment is classed as cell-based, human. As to conditions: LNCaP-AR and CWR-R1, long-term survival two weeks. How it is done: FIG. 1: ESK981 inhibits the growth of diverse preclinical models of prostate cancer and is associated with a unique vacuolization morphology. • (a) The percentage viabilities of DU145 cells treated with 300 nM ESK981 or 167 other tyrosine kinase inhibitors when compared to a vehicle control. The top five most inhibitory compounds, as well as cabozantinib and crizotinib (highlighted in orange), and their respective targets are listed in the table. […] Long-term survival (two weeks) was assayed by absorbance of crystal violet at OD590. • (e) VCaP-RFP cells were cultured for three days in ultralow attachment plates to form 3D tumor spheroids prior to the indicated drug treatments. […] Fluorescence intensity of 3D spheroids was measured by IncuCyte ZOOM. • (f) Castration-resistant VCaP tumors were established subcutaneously in castrated SCID mice, and mice were randomized into three groups, which received vehicle, 30 mg/kg, or 60 mg/kg ESK981 by oral gavage once per day for the indicated dosing schedule. Tumor volumes were monitored by a digital caliper twice per week. Data were analyzed by unpaired t test and presented as mean±SEM. *p<0.05; **p<0.01. • (g) AR^+ prostate patient-derived xenograft (PDX) MDA-PCa-146-12 were implanted subcutaneously in non-castrated SCID mice, and mice were randomized into two groups receiving either once daily vehicle or 30 mg/kg ESK981 for five days each week. […]

For experiment [2], the system named is MDA-PCa-146-10 neuroendocrine prostate cancer PDX. The experiment can be described thus: MDA-PCa-146-10 patient-derived xenograft. The experiment is classed as in vivo, mouse. The settings on record: 30 mg/kg. How it is done:
The University of Texas M.D. Anderson Cancer Center (MDACC) patient-derived xenografts (PDX) series has been previously described^62-64. PDXs were derived from men with CRPC undergoing palliative resections using described protocols^65,66. MDA-PCa-146-12 and 146-10 PDX were derived from a patient initially diagnosed with Gleason 3+4=7 prostate adenocarcinoma with an initial PSA of 10.7 ng/ml. […] PDXs were maintained in male SCID mice by surgically implanting 2 mm^3 tumors coated with 100% Matrigel to both flanks of mice. Once tumors reached 100-200 mm^3 in size, mice were randomized and divided into different treatment groups receiving either 30 mg/kg ESK981 or vehicle (ORA-PLUS) by oral gavage 5 days per week.
On the technique in general: In xenograft studies the graft and the host belong to different species.

The subject of experiment [3] is autophagosomes in LNCaP, VCaP and DU145 cells. The experiment can be described thus: CYTO-ID autophagosome detection. The settings on record: 24 hours. The experiment is classed as cell-based, human. The protocol: 10,000 cells were plated in 96-well plates and incubated with 300 nM of the various compounds for 24 hours. Autophagy activities were detected with CYTO-ID® Autophagy detection kit (Cat No. ENZ-KIT175, Enzo Life Science) according to the manufacturer's instructions, with fluorescence intensity measured on a TECAN M1000 plate reader. Autophagosome induction factor was calculated according to the manufacturer's instructions.

The subject of experiment [4] is mouse embryonic fibroblast (MEF) cells. Nature of the experiment: vacuolization and LC3 lipidation in Atg5 wild-type and knockout MEF cells. As to conditions: 300 nM, 24 hours. Format: cell-based.
The target of the next experiment is VEGFR-1 (FLT1) (Homo sapiens, UniProt P17948). As to conditions: cited from earlier work.
Another experiment concerns the target VEGFR-2 (KDR) (Homo sapiens, UniProt P35968). The settings on record: cited from earlier work.
A further experiment addresses PIKfyve (Homo sapiens, UniProt Q9Y2I7). The experiment can be described thus: kinase dissociation constant analysis (KdELECT). Format: binding. Further details: purchased DiscoveRX (KINOMEscan scanLIPID panel; KdELECT). The settings on record: 11-point dose-response, duplicate. How it is done: Quantitative binding constants (Kd) of ESK981 to PIKfyve, PIP5K1A, PIP5K1C, and PIK3CA were generated using KdELECT® platform (DiscoveRX). An 11-point dose-response of ESK981 (0.05-3000 nM) was used, and the experiment was performed in duplicate. Detailed information is described on the DiscoveRX website (www.discoverx.com).

VEGFR-2 (KDR), sequence (P35968 20-1356, species assumed): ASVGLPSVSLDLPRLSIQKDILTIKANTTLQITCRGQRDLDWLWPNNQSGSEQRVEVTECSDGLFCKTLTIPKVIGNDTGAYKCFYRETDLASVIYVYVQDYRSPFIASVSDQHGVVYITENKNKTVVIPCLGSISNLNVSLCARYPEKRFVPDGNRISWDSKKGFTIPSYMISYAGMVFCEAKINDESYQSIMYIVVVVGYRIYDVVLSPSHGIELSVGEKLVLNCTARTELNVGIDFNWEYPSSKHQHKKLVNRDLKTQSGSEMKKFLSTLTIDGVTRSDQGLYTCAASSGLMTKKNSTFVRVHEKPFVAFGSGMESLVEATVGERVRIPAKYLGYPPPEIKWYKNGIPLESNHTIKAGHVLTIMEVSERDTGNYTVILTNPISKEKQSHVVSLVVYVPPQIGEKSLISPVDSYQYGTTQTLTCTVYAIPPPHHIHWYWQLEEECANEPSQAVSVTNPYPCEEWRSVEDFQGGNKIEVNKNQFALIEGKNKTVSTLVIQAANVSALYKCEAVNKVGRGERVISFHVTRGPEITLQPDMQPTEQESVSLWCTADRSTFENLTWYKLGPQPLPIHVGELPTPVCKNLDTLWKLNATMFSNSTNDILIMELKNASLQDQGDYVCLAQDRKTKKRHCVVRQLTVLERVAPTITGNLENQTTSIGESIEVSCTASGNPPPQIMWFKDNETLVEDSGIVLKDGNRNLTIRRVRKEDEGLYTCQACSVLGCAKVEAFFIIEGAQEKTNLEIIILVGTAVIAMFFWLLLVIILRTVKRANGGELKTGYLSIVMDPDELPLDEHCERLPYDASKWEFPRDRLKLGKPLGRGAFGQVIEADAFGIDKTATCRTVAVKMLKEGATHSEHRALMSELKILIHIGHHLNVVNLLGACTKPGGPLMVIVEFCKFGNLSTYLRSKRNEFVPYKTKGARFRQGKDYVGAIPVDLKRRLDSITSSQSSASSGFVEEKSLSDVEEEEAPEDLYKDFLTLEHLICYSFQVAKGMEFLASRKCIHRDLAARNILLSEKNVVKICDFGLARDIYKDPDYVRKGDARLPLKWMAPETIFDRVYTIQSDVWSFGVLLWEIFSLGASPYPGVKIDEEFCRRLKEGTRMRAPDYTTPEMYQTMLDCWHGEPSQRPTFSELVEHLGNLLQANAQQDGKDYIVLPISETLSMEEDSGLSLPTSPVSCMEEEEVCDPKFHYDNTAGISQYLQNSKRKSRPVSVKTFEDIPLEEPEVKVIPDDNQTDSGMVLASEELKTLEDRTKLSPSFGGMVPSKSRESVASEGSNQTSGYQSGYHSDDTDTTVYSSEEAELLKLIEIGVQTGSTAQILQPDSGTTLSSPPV
VEGFR-1 (FLT1), sequence (P17948 27-1338, species assumed): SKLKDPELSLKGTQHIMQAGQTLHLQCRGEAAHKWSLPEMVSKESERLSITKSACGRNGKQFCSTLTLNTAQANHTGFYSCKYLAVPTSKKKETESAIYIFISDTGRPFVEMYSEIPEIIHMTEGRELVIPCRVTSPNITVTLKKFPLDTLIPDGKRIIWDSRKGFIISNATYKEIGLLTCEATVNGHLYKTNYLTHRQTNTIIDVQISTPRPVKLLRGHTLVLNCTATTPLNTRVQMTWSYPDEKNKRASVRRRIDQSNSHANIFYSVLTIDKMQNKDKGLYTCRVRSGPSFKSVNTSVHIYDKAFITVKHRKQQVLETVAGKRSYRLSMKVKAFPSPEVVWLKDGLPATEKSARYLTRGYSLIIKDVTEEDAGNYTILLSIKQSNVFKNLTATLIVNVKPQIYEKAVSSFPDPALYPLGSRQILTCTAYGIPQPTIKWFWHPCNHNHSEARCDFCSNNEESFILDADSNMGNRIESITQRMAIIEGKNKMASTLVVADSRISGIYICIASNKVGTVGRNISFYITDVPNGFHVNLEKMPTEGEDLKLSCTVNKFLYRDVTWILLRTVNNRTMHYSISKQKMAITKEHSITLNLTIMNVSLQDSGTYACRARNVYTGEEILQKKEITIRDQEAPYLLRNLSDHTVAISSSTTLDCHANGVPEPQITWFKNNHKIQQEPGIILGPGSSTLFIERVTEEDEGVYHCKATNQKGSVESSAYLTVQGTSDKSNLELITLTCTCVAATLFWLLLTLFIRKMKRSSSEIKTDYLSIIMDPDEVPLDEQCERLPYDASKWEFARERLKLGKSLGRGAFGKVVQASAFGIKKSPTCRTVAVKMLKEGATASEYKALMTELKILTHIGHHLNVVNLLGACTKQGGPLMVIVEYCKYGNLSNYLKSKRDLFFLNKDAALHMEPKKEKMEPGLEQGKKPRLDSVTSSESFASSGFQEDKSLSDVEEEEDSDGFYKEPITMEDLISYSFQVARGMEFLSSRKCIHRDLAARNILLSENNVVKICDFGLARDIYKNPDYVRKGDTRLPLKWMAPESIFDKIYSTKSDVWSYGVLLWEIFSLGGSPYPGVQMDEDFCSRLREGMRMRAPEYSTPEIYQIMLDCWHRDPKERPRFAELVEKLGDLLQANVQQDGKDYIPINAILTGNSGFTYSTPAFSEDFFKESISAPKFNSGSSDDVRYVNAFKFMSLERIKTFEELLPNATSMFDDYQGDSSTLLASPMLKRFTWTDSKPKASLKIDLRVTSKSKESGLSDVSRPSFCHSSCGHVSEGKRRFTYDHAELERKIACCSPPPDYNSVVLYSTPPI
PIKfyve, sequence (Q9Y2I7 whole entry): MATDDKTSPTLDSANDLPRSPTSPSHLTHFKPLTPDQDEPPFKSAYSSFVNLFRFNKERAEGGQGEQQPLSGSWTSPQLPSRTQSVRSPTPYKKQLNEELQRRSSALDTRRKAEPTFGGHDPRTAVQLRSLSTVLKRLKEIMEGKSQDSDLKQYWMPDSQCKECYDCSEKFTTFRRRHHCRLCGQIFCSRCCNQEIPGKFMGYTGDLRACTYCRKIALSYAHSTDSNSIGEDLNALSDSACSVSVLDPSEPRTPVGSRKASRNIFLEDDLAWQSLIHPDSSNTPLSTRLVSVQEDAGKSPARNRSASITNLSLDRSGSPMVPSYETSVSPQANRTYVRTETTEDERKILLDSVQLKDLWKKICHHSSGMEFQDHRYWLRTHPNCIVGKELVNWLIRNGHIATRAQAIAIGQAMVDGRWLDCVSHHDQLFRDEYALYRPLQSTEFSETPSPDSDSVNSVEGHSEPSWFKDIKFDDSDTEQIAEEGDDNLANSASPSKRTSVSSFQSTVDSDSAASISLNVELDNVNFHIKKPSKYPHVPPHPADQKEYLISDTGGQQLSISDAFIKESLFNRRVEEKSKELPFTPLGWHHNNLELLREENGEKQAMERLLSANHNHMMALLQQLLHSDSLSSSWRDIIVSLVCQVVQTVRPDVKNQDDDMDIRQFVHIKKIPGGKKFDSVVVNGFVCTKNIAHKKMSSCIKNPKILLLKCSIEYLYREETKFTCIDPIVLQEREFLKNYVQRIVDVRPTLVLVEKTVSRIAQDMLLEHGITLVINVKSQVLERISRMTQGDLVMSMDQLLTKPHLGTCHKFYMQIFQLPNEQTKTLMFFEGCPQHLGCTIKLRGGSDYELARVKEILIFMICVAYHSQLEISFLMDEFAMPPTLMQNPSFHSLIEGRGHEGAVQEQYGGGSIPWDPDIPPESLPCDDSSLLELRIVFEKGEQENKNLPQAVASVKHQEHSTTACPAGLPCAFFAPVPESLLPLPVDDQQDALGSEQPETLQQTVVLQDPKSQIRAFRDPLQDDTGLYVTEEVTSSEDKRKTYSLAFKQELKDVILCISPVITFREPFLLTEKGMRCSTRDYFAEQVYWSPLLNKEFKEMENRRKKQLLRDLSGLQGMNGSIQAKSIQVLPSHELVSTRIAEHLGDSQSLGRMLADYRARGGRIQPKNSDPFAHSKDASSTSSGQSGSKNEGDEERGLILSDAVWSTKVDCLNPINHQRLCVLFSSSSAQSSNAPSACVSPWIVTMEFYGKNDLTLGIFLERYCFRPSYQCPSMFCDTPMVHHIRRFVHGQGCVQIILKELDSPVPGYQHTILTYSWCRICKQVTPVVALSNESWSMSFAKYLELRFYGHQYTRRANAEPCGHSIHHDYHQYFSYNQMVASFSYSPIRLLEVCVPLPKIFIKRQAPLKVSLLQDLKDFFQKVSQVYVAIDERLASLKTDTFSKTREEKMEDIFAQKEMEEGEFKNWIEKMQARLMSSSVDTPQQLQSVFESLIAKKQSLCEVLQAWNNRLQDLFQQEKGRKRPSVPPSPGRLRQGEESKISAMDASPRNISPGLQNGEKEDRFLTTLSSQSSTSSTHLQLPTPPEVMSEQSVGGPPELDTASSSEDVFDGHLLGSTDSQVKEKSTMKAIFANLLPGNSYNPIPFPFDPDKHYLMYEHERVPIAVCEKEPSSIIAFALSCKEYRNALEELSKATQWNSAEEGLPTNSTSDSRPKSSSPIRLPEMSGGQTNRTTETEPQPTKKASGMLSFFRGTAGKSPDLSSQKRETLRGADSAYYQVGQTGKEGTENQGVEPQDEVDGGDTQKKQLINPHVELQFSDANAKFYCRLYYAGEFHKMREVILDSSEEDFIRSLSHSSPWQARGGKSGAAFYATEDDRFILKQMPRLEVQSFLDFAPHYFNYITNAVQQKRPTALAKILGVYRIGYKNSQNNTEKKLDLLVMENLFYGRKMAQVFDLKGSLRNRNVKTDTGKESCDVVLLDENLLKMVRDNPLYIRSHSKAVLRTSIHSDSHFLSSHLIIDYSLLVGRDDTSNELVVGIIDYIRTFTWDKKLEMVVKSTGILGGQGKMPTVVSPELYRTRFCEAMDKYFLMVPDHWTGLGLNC

Consider `CC(C)Cn1c2ccc(Nc3ncccn3)cc2c2c3c(c4c(c21)CCc1nn(C)cc1-4)C(=O)NC3` [ESK981, 13-isobutyl-4-methyl-10-(pyrimidin-2-ylamino)-1,2,4,7,8,13-hexahydro-6H-indazolo[5,4-a]pyrrolo[3,4-c]carbazol-6-one], for which the “efficacy in enzalutamide-resistant cell lines” value in experiment [1] was “remained efficacious”. Moreover, the tumor weights result in experiment [2] (day 21) is given as “significant decreases in tumor weights”. For the same compound, the tumor growth entry in experiment [2] (oral gavage 5 days per week, SCID mice) is reported as “Significant inhibition of tumor growth”. Moreover, in experiment [3] (DU145 cells, 300 nM, vs 154 autophagy-related compounds and 167 tyrosine kinase inhibitors), the “rank in autophagosome induction among compound libraries” value is recorded as “highest potency at inducing autophagosome levels”. For the same compound, the “autophagosome signals (CYTO-ID fluorescence intensity)” value in experiment [3] (LNCaP, VCaP and DU145 cells, increasing concentrations) is “dose-dependent induction of autophagosome signals”. In experiment [3] (VCaP and LNCaP cells), the “level of autophagosome induction compared with rapamycin” value is recorded as “higher than a known autophagy activator, the mTOR inhibitor rapamycin”. Moreover, the LC3 lipidation result in experiment [4] (Atg5 knockout MEFs) is reported as “abolished”. The figures for the vacuolization result in experiment [4] (autophagy-deficient Atg5−/− MEFs) and in experiment [4] (wild-type MEF cells) were “largely attenuated” and “significantly induced”, respectively. The activity against kinase result on VEGFR-1 (FLT1) and at VEGFR-2 (KDR) was “potent activity” in each case. For the same compound, at PIKfyve, the Kd (in general, the constant that tells how readily two partners part at equilibrium) was 12 nM.
